Where “and” joins values, the source holds several entries; their conditions need not be identical. Equal values may be shown once. Toxic doses and inconclusive results are not listed.
Test system: P388 leukemia ip, CD2F1 mice, survival T/C
Experiment: NCI In Vivo Anticancer Drug Screen. Data for tumor model P388 Leukemia (intraperitoneal) in CD2F1 (CDF1) mice
Conditions: endpoint: median survival time, higher = longer survival
Outline: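 Mice carrying the transplanted tumor received test compound or vehicle. Survival was recorded in each group, and the value is the treated-group measurement divided by that of the vehicle-treated control group.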

[1] = dose: 50.0 mg/kg/injection, schedule: Q01DX009 (ip), vehicle: saline with Tween-80
[2] = dose: 100.0 mg/kg/injection, schedule: Q01DX009 (ip), vehicle: saline with Tween-80
[3] = dose: 200.0 mg/kg/injection, schedule: Q01DX009 (ip), vehicle: saline with Tween-80
[4] = dose: 50.0 mg/kg/injection, schedule: Q01DX009 (ip), vehicle: saline
[5] = dose: 100.0 mg/kg/injection, schedule: Q01DX009 (ip), vehicle: saline
[6] = dose: 200.0 mg/kg/injection, schedule: Q01DX009 (ip), vehicle: saline
[7] = dose: 60.0 mg/kg/injection, schedule: Q01DX005 (ip), vehicle: saline with Tween-80
[8] = dose: 120.0 mg/kg/injection, schedule: Q01DX005 (ip), vehicle: saline with Tween-80
[9] = dose: 240.0 mg/kg/injection, schedule: Q01DX005 (ip), vehicle: saline with Tween-80
[10] = dose: 50.0 mg/kg/injection, schedule: Q01DX005 (ip), vehicle: Klucel (hydroxypropylcellulose) (HPC)
[11] = dose: 100.0 mg/kg/injection, schedule: Q01DX005 (ip), vehicle: Klucel (hydroxypropylcellulose) (HPC)
[12] = dose: 200.0 mg/kg/injection, schedule: Q01DX005 (ip), vehicle: Klucel (hydroxypropylcellulose) (HPC)

Cc1cc(NN=O)nc(C)c1C#N
T/C (dose: 3.12 mg/kg/injection, schedule: Q01DX009 (ip), vehicle: water): 109 % of control
T/C (dose: 6.25 mg/kg/injection, schedule: Q01DX009 (ip), vehicle: water): 123 % of control
T/C (dose: 12.5 mg/kg/injection, schedule: Q01DX009 (ip), vehicle: water): 116 % of control
T/C (dose: 25.0 mg/kg/injection, schedule: Q01DX009 (ip), vehicle: water): 150 % of control and 151 % of control
T/C (dose: 50.0 mg/kg/injection, schedule: Q01DX009 (ip), vehicle: water): 178 % of control and 190 % of control
T/C (dose: 100.0 mg/kg/injection, schedule: Q01DX009 (ip), vehicle: water): 178 % of control

CC1CC(C)(C)N=C(Cc2ccccc2)O1 (stereo not given)
T/C [1]: 100 % of control
T/C [2]: 101 % of control
T/C [3]: 89 % of control

Cc1ccc(S(=O)(=O)O/N=C(/C#N)c2ccccc2)cc1
T/C [4]: 101 % of control
T/C [2]: 102 % of control
T/C [5]: 99 % of control
T/C [3]: 101 % of control
T/C [6]: 105 % of control
T/C (dose: 400.0 mg/kg/injection, schedule: Q01DX009 (ip), vehicle: saline with Tween-80): 97 % of control

CCC1(O)CC2CN(CCc3c([nH]c4ccccc34)C(C(=O)OC)(c3cc4c(cc3OC)N(C=O)C3C(O)(C(=O)OC)CC5(CC)C=CCN6CCC43C65)C2)C1 (stereo not given)
T/C (dose: 1.0 mg/kg/injection, schedule: Q01DX001 (ip), vehicle: saline): 155 % of control and 160 % of control
T/C (dose: 2.0 mg/kg/injection, schedule: Q01DX001 (ip), vehicle: saline): 158 % of control and 160 % of control
T/C (dose: 4.0 mg/kg/injection, schedule: Q01DX001 (ip), vehicle: saline): 180 % of control and 185 % of control
T/C (dose: 8.0 mg/kg/injection, schedule: Q01DX001 (ip), vehicle: saline): 205 % of control and 220 % of control
T/C (dose: 16.0 mg/kg/injection, schedule: Q01DX001 (ip), vehicle: saline): 255 % of control

CCc1ncc(CO)n1Cc1cccc2ccccc12
T/C [1]: 100 % of control
T/C [2]: 102 % of control
T/C [3]: 103 % of control

C=C(N)/C=C1/NC(C)=CS1
T/C (dose: 15.0 mg/kg/injection, schedule: Q01DX005 (ip), vehicle: saline): 96 % of control
T/C (dose: 30.0 mg/kg/injection, schedule: Q01DX005 (ip), vehicle: saline): 96 % of control
T/C (dose: 60.0 mg/kg/injection, schedule: Q01DX005 (ip), vehicle: saline): 91 % of control and 94 % of control

c1nnc(NC(Nc2nncs2)C2CCCCC2)s1
T/C (dose: 30.0 mg/kg/injection, schedule: Q01DX005 (ip), vehicle: saline with Tween-80): 98 % of control
T/C [7]: 95 % of control
T/C [8]: 90 % of control and 92 % of control
T/C [9]: 121 % of control

N#C/C(=C\c1ccc2c(c1)OCO2)C(=O)N/N=C/c1ccc2c(c1)OCO2
T/C [4]: 101 % of control
T/C [5]: 98 % of control
T/C [6]: 94 % of control

O=C(SCNS(=O)(=O)c1ccccc1)c1ccccc1
T/C (dose: 100.0 mg/kg/injection, schedule: Q01DX001 (ip), vehicle: Klucel (hydroxypropylcellulose) (HPC)): 111 % of control
T/C (dose: 200.0 mg/kg/injection, schedule: Q01DX001 (ip), vehicle: Klucel (hydroxypropylcellulose) (HPC)): 113 % of control
T/C (dose: 400.0 mg/kg/injection, schedule: Q01DX001 (ip), vehicle: Klucel (hydroxypropylcellulose) (HPC)): 114 % of control

CC(C)(C)c1cc(/C=N\O)cc(C(C)(C)C)c1O
T/C [4]: 98 % of control
T/C [5]: 107 % of control
T/C [6]: 107 % of control

CNC(=S)NNc1ccc(C)cc1
T/C (dose: 12.5 mg/kg/injection, schedule: Q01DX009 (ip), vehicle: other): 87 % of control
T/C (dose: 25.0 mg/kg/injection, schedule: Q01DX009 (ip), vehicle: other): 90 % of control
T/C (dose: 100.0 mg/kg/injection, schedule: Q01DX009 (ip), vehicle: other): 92 % of control
T/C (dose: 200.0 mg/kg/injection, schedule: Q01DX009 (ip), vehicle: other): 101 % of control

CN(Cc1cnc2nc(N[Si](C)(C)C)nc(N[Si](C)(C)C)c2n1)c1ccc(C(=O)NC(CCC(=O)O[Si](C)(C)C)C(=O)O[Si](C)(C)C)cc1 (stereo not given)
T/C (dose: 0.63 mg/kg/injection, schedule: Q01DX009 (ip), vehicle: saline): 165 % of control
T/C (dose: 1.25 mg/kg/injection, schedule: Q01DX009 (ip), vehicle: saline): 191 % of control
T/C (dose: 1.9 mg/kg/injection, schedule: Q04DX003 (ip), vehicle: saline): 159 % of control
T/C (dose: 2.5 mg/kg/injection, schedule: Q01DX009 (ip), vehicle: saline): 226 % of control
T/C (dose: 3.8 mg/kg/injection, schedule: Q04DX003 (ip), vehicle: saline): 177 % of control
T/C (dose: 7.5 mg/kg/injection, schedule: Q04DX003 (ip), vehicle: saline): 195 % of control
T/C (dose: 15.0 mg/kg/injection, schedule: Q04DX003 (ip), vehicle: saline): 218 % of control
T/C (dose: 30.0 mg/kg/injection, schedule: Q04DX003 (ip), vehicle: saline): 236 % of control
T/C (dose: 60.0 mg/kg/injection, schedule: Q04DX003 (ip), vehicle: saline): 109 % of control

O=C1CSC(=S)N1c1ccccc1C(F)(F)F
T/C (dose: 50.0 mg/kg/injection, schedule: Q01DX009 (ip), vehicle: suspension in saline): 91 % of control
T/C (dose: 100.0 mg/kg/injection, schedule: Q01DX009 (ip), vehicle: suspension in saline): 96 % of control
T/C (dose: 200.0 mg/kg/injection, schedule: Q01DX009 (ip), vehicle: suspension in saline): 93 % of control

CCOc1ccc2c(N/N=C/c3ccc(N(CCCl)CCCl)cc3)cc(C)nc2c1
T/C (dose: 12.5 mg/kg/injection, schedule: Q01DX009 (ip), vehicle: saline with Tween-80): 96 % of control
T/C (dose: 25.0 mg/kg/injection, schedule: Q01DX009 (ip), vehicle: saline with Tween-80): 94 % of control
T/C [1]: 99 % of control and 88 % of control

O=NN(c1ccccc1)c1ccc([N+](=O)[O-])cc1
T/C [1]: 90 % of control
T/C [2]: 90 % of control

Oc1ccc(C2COc3c(ccc(O)c3O)C2)cc1 (stereo not given)
T/C [7]: 98 % of control
T/C [8]: 100 % of control
T/C [9]: 101 % of control

C1OC1C1CO1 (stereo not given)
T/C (dose: 10.0 mg/kg/injection, schedule: Q04DX003 (ip), vehicle: saline): 113 % of control
T/C (dose: 13.2 mg/kg/injection, schedule: Q01DX009 (ip), vehicle: saline): 109 % of control
T/C (dose: 20.0 mg/kg/injection, schedule: Q04DX003 (ip), vehicle: saline): 113 % of control
T/C (dose: 30.0 mg/kg/injection, schedule: Q01DX009 (ip), vehicle: saline): 118 % of control
T/C (dose: 40.0 mg/kg/injection, schedule: Q01DX009 (ip), vehicle: saline): 95 % of control
T/C (dose: 40.0 mg/kg/injection, schedule: Q04DX003 (ip), vehicle: saline): 109 % of control

COc1ccc(C2(c3ccccc3)c3ccccc3C(=O)c3ccccc32)cc1
T/C [10]: 101 % of control
T/C [11]: 103 % of control
T/C [12]: 99 % of control

O=C(N1CCN(c2ccccc2)C1=O)N1CCN(c2ccccc2)C1=O
T/C [1]: 98 % of control
T/C [2]: 95 % of control
T/C [3]: 91 % of control

O=c1[nH]c(=S)c2c(n1CCCO)CCC2
T/C [10]: 97 % of control
T/C [11]: 101 % of control
T/C [12]: 105 % of control

Cc1cc(Cl)nc(Cl)c1C#N
T/C (dose: 18.75 mg/kg/injection, schedule: Q04DX003 (ip), vehicle: saline): 98 % of control
T/C (dose: 37.5 mg/kg/injection, schedule: Q04DX003 (ip), vehicle: saline): 103 % of control
T/C (dose: 75.0 mg/kg/injection, schedule: Q04DX003 (ip), vehicle: saline): 103 % of control
T/C (dose: 150.0 mg/kg/injection, schedule: Q04DX003 (ip), vehicle: saline): 99 % of control

C/C(=N\N/C=N/S(=O)(=O)c1ccccc1)c1ccccc1
T/C [10]: 88 % of control
T/C [11]: 89 % of control
T/C [12]: 89 % of control

O=[N+]([O-])c1ccc(SN2CCCCC2CC2CCCCC2)c([N+](=O)[O-])c1 (stereo not given)
T/C [10]: 105 % of control
T/C [11]: 98 % of control
T/C [12]: 96 % of control

O=C1CC2C(CC3OC(=O)C4C3C23COC4(O)C(O)C3)c2occc21 (stereo not given)
T/C (dose: 100.0 mg/kg/injection, schedule: Q01DX001 (ip), vehicle: saline with Tween-80): 104 % of control
T/C (dose: 200.0 mg/kg/injection, schedule: Q01DX001 (ip), vehicle: saline with Tween-80): 101 % of control

Source: PubChem BioAssay AID330 (DTP/NCI, 2004)
